This is an account of results in US8778951B2, “Heteroaryl compounds and their uses” (Novartis AG, priority 2009, dated 2014).

The target in this assay is Cdk9/cyclinT1 (Homo sapiens (Human), UniProt P50750). Briefly: Cdk9/CyclinT1 IMAP Protocol (fluorescence polarization kinase assay). The format is biochemical. The settings on record: Table 2; generated using one of the two Cdk9/cyclinT1 assays (IMAP or Alpha Screen), not specified which; unit inferred. On the procedure: Cdk9/CyclinT1 IMAP Protocol
Sequence of Cdk9/cyclinT1 (P50750 whole entry): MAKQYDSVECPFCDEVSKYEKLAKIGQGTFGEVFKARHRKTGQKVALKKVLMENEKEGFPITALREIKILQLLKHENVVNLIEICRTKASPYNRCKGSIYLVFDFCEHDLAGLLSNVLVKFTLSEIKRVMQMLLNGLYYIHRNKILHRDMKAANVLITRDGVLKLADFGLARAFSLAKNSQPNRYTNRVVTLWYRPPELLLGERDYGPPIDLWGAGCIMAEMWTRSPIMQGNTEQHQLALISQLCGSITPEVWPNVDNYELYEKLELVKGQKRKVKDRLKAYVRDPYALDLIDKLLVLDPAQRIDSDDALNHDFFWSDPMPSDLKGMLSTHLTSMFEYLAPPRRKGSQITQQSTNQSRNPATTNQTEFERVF
Sequence of Cdk9/cyclinT1 (O60563 whole entry partner): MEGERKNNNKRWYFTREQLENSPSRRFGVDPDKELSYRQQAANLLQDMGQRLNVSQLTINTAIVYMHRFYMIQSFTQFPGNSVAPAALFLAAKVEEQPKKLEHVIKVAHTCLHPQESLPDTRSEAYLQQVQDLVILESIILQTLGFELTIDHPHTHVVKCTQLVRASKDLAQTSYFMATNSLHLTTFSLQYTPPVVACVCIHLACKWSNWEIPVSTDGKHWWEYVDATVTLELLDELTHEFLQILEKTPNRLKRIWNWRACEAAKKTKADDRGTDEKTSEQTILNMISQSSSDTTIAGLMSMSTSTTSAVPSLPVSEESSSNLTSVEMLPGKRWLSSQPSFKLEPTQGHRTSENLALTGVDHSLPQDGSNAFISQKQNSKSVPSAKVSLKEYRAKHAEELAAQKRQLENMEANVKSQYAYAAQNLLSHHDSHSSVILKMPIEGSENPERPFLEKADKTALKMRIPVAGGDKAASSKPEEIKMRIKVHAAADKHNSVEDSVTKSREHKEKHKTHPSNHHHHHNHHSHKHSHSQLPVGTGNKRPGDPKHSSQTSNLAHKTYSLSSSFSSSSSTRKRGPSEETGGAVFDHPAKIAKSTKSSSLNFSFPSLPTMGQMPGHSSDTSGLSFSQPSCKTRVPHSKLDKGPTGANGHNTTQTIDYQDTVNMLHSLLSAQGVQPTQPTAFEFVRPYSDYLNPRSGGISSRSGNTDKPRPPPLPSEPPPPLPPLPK
The biological activity of the compounds of the invention can be determined using the assay described below.
Cdk9/cyclinT1 is purchased from Millipore, cat #14-685. The final total protein concentration in the assay 4 nM. […] The final concentration of peptide substrate is 100 nM. The ATP substrate (Adenosine-5′-triphosphate) is purchased from Roche Diagnostics, cat#1140965. The final concentration of ATP substrate is 6 uM. IMAP (Immobilized Metal Assay for Phosphochemicals) Progressive Binding reagent is purchased from Molecular Devices, cat#R8139. Fluorescence polarization (FP) is used for detection. The 5TAMRA-cdk7tide peptide is phosphorylated by Cdk9/cyclinT1 kinase using the ATP substrate. The Phospho-5TAMRA-cdk7tide peptide substrate is bound to the IMAP Progressive Binding Reagent. The binding of the IMAP Progressive Binding Reagent changes the fluorescence polarization of the 5TAMRA-cdk7tide peptide which is measured at an excitation of 531 nm and FP emission of 595 nm. Assays are carried out in 100 mM Tris, pH=7.2, mM MgCl2, 0.05% NaN3, 0.01% Tween-20, 1 mM dithiothreitol and 2.5% dimethyl sulfoxide. IMAP Progressive Binding Reagent is diluted 1:800 in 100% 1× Solution A from Molecular Devices, cat#R7285.
General protocol is as follows: To 10 ul of cdk9/cyclinT1, 0.5 ul of test compound in dimethyl sulfoxide is added. 5TAMRA-cdk7tide and ATP are mixed. 10 ul of the 5TAMRA-cdk7tide/ATP mix is added to start the reaction. The reaction is allowed to proceed for 4.5 hrs. 60 uL of IMAP Progressive Binding Reagent is added. After >1 hr of incubation, plates are read on the Envision 2101 from Perkin-Elmer. The assay is run in a 384-well format using black Corning plates, cat#3573.
Background: Polarisation of emitted light reports the rotation of a fluorescent probe.
For orientation: IC50 means the concentration at which inhibition is half-maximal. `Fc1cccc(CNc2cccc(-c3cc(NC[C@@H]4CCCNC4)ncc3Cl)n2)c1` [Compound 166]: the IC50 was found to be 27 nM. That is a double-digit nanomolar value.

Compound `COCCCNc1cc(-c2cccc(NCc3cccc(F)c3)n2)c(Cl)cn1` [Compound 147] gave an IC50 of 19.4 nM.

As for `COCCN[C@H]1CC[C@H](Nc2cc(-c3cccc(NCC4CCOCC4)n3)c(Cl)cn2)CC1` [Compound 276], the concentration for half-maximal inhibition (IC50) is 8.93 nM.

`Clc1cnc(NC[C@@H]2CCCNC2)cc1-c1cccc(NCC2CCOCC2)n1` [Compound 300] returned a half-inhibitory concentration (IC50) of 219 nM. This IC50 is about 25-fold higher than that of the compound before.

As for `CC(=O)NC[C@H]1CC[C@H](Nc2cc(-c3cncc(NCC4CCOCC4)n3)c(Cl)cn2)CC1` [Compound 247], 20.2 nM corresponded to half-maximal inhibition (IC50).

Take `CC1(CNc2cccc(-c3cc(N[C@H]4CC[C@H](N)CC4)ncc3Cl)n2)CCOCC1` [Compound 311, N2′-(trans-4-aminocyclohexyl)-5′-chloro-N6-((4-methyltetrahydro-2H-pyran-4-yl)methyl)-2,4′-bipyridine-2′,6-diamine]: the IC50 was found to be 1 nM.

Regarding `CN1CCC[C@H]1C(=O)N[C@H]1CC[C@H](Nc2cc(-c3cccc(NCc4cccc(F)c4)n3)c(Cl)cn2)CC1` [Compound 80], it took 31.7 nM to reach half-maximal inhibition (IC50).

As for `CN(C)CCCCNc1cc(-c2cccc(NCc3cccc(F)c3)n2)c(Cl)cn1` [Compound 161], the half-maximal inhibitory concentration (IC50) stood at 26 nM.

`COC[C@@H](C)N[C@H]1CC[C@H](Nc2cc(-c3cccc(NCC4(OC)CCOCC4)n3)c(Cl)cn2)CC1` [Compound 305] yielded an IC50 of 1 nM.

In turn, `CC(=O)NCCNc1cccc(-c2cc(N[C@H]3CC[C@H](O)CC3)ncc2Cl)n1` [Compound 124] gave a 50% inhibitory concentration (IC50) of 116 nM. This IC50 lies about 120-fold higher than the previous one.

`Fc1cccc(CNc2cccc(-c3cc(NC[C@H]4CCCNC4)ncc3Cl)n2)c1` [Compound 164] registered an IC50 of 39 nM. This IC50 is about 3-fold lower than that of the compound before.

Consider `CC(CS(C)(=O)=O)N[C@H]1CC[C@H](Nc2cc(-c3ccc(F)c(NCC4CCOCC4)n3)c(Cl)cn2)CC1` (some centres unmarked) [Compound 319], for which half-maximal inhibition (IC50) was put at 4 nM.

`Clc1cnc(NC2CCNCC2)cc1-c1cccc(NCc2ccncc2)n1` [Compound 72] gave an IC50 of 114 nM.

The compound `N[C@H]1CC[C@H](Nc2cc(-c3nc(NCC4CCOCC4)cnc3Cl)c(Cl)cn2)CC1` [Compound 223, trans-N1-(5-chloro-4-(3-chloro-6-((tetrahydro-2H-pyran-4-yl)methyl)aminopyrazin-2-yl)pyridin-2-yl)cyclohexane-1,4-diamine] showed a half-inhibitory concentration (IC50) of 7.95 nM.

For `O=S1(=O)CCC(N[C@H]2CC[C@H](Nc3cc(-c4nc(NCC5CCOCC5)ccc4Cl)c(Cl)cn3)CC2)CC1` [Compound 348, 3,5′-dichloro-N6-((tetrahydro-2H-pyran-4-yl)methyl)-N2′-(trans-4-(1,1-dioxo-tetrahydro-2H-thiopyran-4-ylamino)cyclohexyl)-2,4′-bipyridine-2′,6-diamine], 2 nM corresponded to half-maximal inhibition (IC50).

`Clc1cnc(N[C@H]2CC[C@H](NC[C@@H]3CCCO3)CC2)cc1-c1cccc(NCC2CCOCC2)n1` [Compound 278]: it took 7.94 nM to reach half-maximal inhibition (IC50).

The compound `Fc1cc(F)cc(CNc2cccc(-c3cc(N[C@H]4CC[C@H](N5CCCC5)CC4)ncc3Cl)n2)c1` [Compound 23, 5′-chloro-N6-(3,5-difluorobenzyl)-N2′-(trans-4-(pyrrolidin-1-yl)cyclohexyl)-2,4′-bipyridine-2′,6-diamine] yielded a 50% inhibitory concentration (IC50) of 7.95 nM. This IC50 and that of the compound before are within 1.5-fold of each other.

With `CCCCNc1cc(-c2cccc(NCc3cccc(F)c3)n2)c(Cl)cn1` [Compound 173], the IC50 stood at 62 nM.

In turn, `OCCNc1cc(-c2cncc(NCC3CCOCC3)n2)c(Cl)cn1` [Compound 210] gave an IC50 of 86 nM.

Regarding `O[C@H]1CC[C@@H](Nc2cc(-c3cccc(NCC4CCOCC4)n3)c(Cl)cn2)CC1` [Compound 275], half-maximal inhibition (IC50) required 146 nM.

`N[C@H]1CC[C@H](Nc2cc(-c3nc(NCC4CCOCC4)c(F)cc3F)c(Cl)cn2)CC1` [Compound 318] came in with an IC50 of 0.26 nM.

`CN(C)[C@H]1CC[C@H](Nc2cc(-c3cccc(NCc4cc(F)cc(F)c4)n3)c(Cl)cn2)CC1` [Compound 198] yielded an IC50 of 7.94 nM.

`CC(=O)N1CCC[C@H](CNc2cccc(-c3cc(N[C@H]4CC[C@H](N)CC4)ncc3Cl)n2)C1` [Compound 215, 1-((R)-3-((2′-(trans-4-aminocyclohexylamino)-5′-chloro-2,4′-bipyridin-6-yl-amino)methyl)piperidin-1-yl)ethanone] registered a half-inhibitory concentration (IC50) of 65.5 nM.

As for `CN(C)C(=O)[C@H]1CC[C@@H](Nc2cc(-c3cccc(NCc4cccc(F)c4)n3)c(Cl)cn2)C1` [Compound 205, (1S,3R)-3-(5′-chloro-6-(3-fluorobenzylamino)-2,4′-bipyridin-2′-yl-amino)-N,N-dimethylcyclopentanecarboxamide], the IC50 amounted to 17.5 nM.

The compound `OC[C@H]1CC[C@H](Nc2cc(-c3cccc(NCc4cccc(F)c4)n3)c(Cl)cn2)CC1` [Compound 181] showed a 50% inhibitory concentration (IC50) of 7.94 nM.

For the compound `CNc1cc(-c2cccc(NCc3cccc(F)c3)n2)c(Cl)cn1` [Compound 178, 5′-chloro-N6-(3-fluorobenzyl)-N2′-methyl-2,4′-bipyridine-2′,6-diamine], the IC50 is 103 nM.

`N[C@H]1CC[C@H](Nc2cc(-c3cccc(NCc4cccc(F)c4)n3)c(Cl)cn2)CC1` [Compound 1, N2′-(trans-4-aminocyclohexyl)-5′-chloro-N6-(3-fluorobenzyl)-2,4′-bipyridine-2′,6-diamine] registered a half-maximal inhibitory concentration (IC50) of 7.95 nM.

As for `COCCN[C@H]1CC[C@H](Nc2cc(-c3nc(NCC4CCOCC4)ccc3Br)c(Cl)cn2)CC1` [Compound 292, 3-bromo-5′-chloro-N2′-(trans-4-(2-methoxyethylamino)cyclohexyl)-N6-((tetrahydro-2H-pyran-4-yl)methyl)-2,4′-bipyridine-2′,6-diamine], the IC50 amounted to 2 nM.

`Fc1cccc(CNc2cccc(-c3cc(NCCN4CCOCC4)ncc3Cl)n2)c1` [Compound 171] showed an IC50 of 218 nM.

As for `NCCCCNc1cc(-c2cccc(NCc3cc(F)cc(F)c3)n2)c(Cl)cn1` [Compound 188], the half-inhibitory concentration (IC50) came out at 7.94 nM.

Take `NC[C@H]1CC[C@H](Nc2cc(-c3cccc(NCc4cccnc4)n3)c(Cl)cn2)CC1` [Compound 58]: the half-maximal inhibitory concentration (IC50) is 31.2 nM.

The compound `CCN[C@H]1CC[C@H](Nc2cc(-c3cccc(NCc4cccc(F)c4)n3)c(Cl)cn2)CC1` [Compound 88] displayed a half-inhibitory concentration (IC50) of 11 nM. This IC50 is about 2.8-fold lower than that of the compound before.

The compound `NC(=O)c1cc(NCc2cccc(F)c2)nc(-c2cc(N[C@H]3CC[C@H](N)CC3)ncc2Cl)c1` [Compound 16, 2′-(trans-4-aminocyclohexylamino)-5′-chloro-6-(3-fluorobenzylamino)-2,4′-bipyridine-4-carboxamide] showed a half-inhibitory concentration (IC50) of 23.6 nM. This IC50 lies about 2.1-fold higher than the previous one.

For the compound `Nc1cc(-c2cccc(NCc3cccc(F)c3)n2)c(Cl)cn1` [Compound 179], 544 nM corresponded to half-maximal inhibition (IC50).

The compound `N[C@H]1CC[C@H](Nc2cc(-c3cnc(Cl)c(NCC4CCOCC4)n3)c(Cl)cn2)CC1` [Compound 221] returned an IC50 of 7.95 nM.

“(S)-3-(trans-4-(3,5′-dichloro-6-((tetrahydro-2H-pyran-4-yl)methyl)amino-2,4′-bipyridin-2′-yl-amino)cyclohexylamino)-1,1,1-trifluoropropan-2-ol [Compound 289]” had a half-inhibitory concentration (IC50) of 4 nM. This IC50 lies about 2-fold lower than the previous one.

In the case of `Clc1cnc(N[C@H]2CCCNC2)cc1-c1cccc(NCc2ccncc2)n1` [Compound 99], the IC50 stood at 679 nM.

For the compound `O[C@H]1CC[C@H](Nc2cc(-c3cccc(NCc4cc(F)cc(F)c4)n3)c(Cl)cn2)CC1` [Compound 133], the IC50 stood at 7.95 nM.
